Values joined by “and” are separate entries in the source; they are usually repeats but may differ in a detail not shown here. Equal entries are not always repeated.
Columns and labels:
[1] = tested on: A375 melanoma cells; assay: AlamarBlue assay, A375; format: cell-based, human; conditions: for Cellular activity in melanoma cells (A375), alamarBlue: Fig.1g, replicates
Procedure: 3. AlamarBlue assay. AlamarBlue was made by resazurin sodium salt (Sigma, Cat
# 199303) dissolved in PBS.
NCI-H211, MDA-MB231 and A375 cells were plated in 96-well plates at approximately 30% confluence and left overnight to adhere. In the following day, […]
of treatment, 10 μl AlamarBlue reagent (0.3 mg/ml) was added to each well, and after 18h, the florescence intensity in each well was measured using a top-reading fluorescent plate reader with excitation at 530 nm and emission at 590 nm. […]

[2] = tested on: phosphorylated BRD4 and c-MYC; assay: Western blot of p-BRD4, BRD4 and c-MYC in solid tumor cell lines; format: cell-based, human; conditions: 24 h
Procedure: Fig. 2 NHWD-870 inhibited BRD4 phosphorylation and c-MYC expression, and suppressed cell growth. a Representative western blot analysis of p-BRD4 (s484/488), BRD4, c-MYC, and GAPDH after treatment of MDA-MB231, SUM159, A2780 ES-2, and H526 cells with JQ-1 or NHWD-870 at the indicated concentrations for 24 h. GAPDH served as the loading control. Selected from three independent experiments. b MTT assays of H526, A2780, ES-2, and MDA-MB231 cells treated with JQ-1 or NHWD-870 at the indicated concentrations for 5 days. Data are presented as mean ± SEM from three independent experiments. c, d Clonogenic assays of H526, A2780, ES-2 and MDA-MB231 cells treated with 250 nM JQ-1 or NHWD-870 for 5 days. Shown are representative images (c) and quantification of colonies (d). […] Shown are representative images (e) and quantification of relative colony sizes (f). Scale bar, 50 μm. Data are presented as mean ± SEM from five independent experiments. p values were calculated using two-tailed, unpaired t tests in this figure. **p < 0.01; ***p < 0.001. Source data are provided as a Source Data file. […]
4. Protein extraction and w estern blot anal ysis. Freshly dissected unfixed tissue was homogenized in lysis buffer. The lysates were centrifuged at 13,000g for 10 minutes at 4°C. Supernatants were collected and determined with a Bradford Protein Assay kit (Bio-Rad, Hercules, CA). The cell lysates were subjected to SDS-PAGE followed by immunoblotting (Immobilon P; Millipore, Milford, MA) with specific antibodies followed by detection using an enhanced chemilumine scence kit (Amersham Life Science, Arlington Heights, IL). […]

[3] = tested on: B16F10 mouse melanoma; assay: B16F10 mouse melanoma syngeneic model tumor growth; format: in vivo, C57BL/6 mice; conditions: B16F10 mouse melanoma, once daily 11 days, NHWD-870-HCl
Description: PO, oral administration; QD, once daily; BID, twice daily. b–d Tumor growth curves for A2780 ovarian tumor (n = 5) (b), TMD8 large B cell lymphoma (n = 6) (c), and B16F10 melanoma (n = 5) (d) bearing mice treated with the indicated compounds once daily for 11-21 days. e, f Tumor growth curves for A375 melanoma (n = 6) (e), and patient-derived xenograft (PDX) of melanoma (n = 5) (f) bearing mice treated with the indicated compounds once daily (5 days on, 2 days off) for 21 days. For d–f, NHWD-870 used is NHWD-870-HCl synthesized using Suzuki coupling route. Data are presented as mean ± SEM in (a, b, d, f) and mean + SEM in (c, e). p values were calculated using two-tailed, unpaired t tests. *p < 0.05; **p < 0.01; ***p < 0.001. Source data are provided as a Source Data file.
4–6 weeks old female BALB/c nude mice were used for most experiments, with the exception of 6–8 weeks old female C57BL/6 mice were used for B16F10 experiments, and 6–8 weeks old male BALB/c nude mice and SD rats were used for pharmacokinetic experiments. All animals were purchased from Shanghai SIPPR-Bk Lab Animal Co., Ltd. All animals were housed under a regimen of 12 h light/12 h dark cycles and specific pathogen-free conditions. 5×10^6 NCI-H526, ES-2, MDA-MB231, A2780, A375, B16F10, and TMD-8 cells (0.1 ml) were injected subcutaneously into female nude mice. The melanoma patient-derived xenograft model was derived from a human melanoma sample (BRAF, NARS and NF1 wild type, and p53 mutant) removed from a patient in Xiangya Hospital. Surgically removed tumor fragments were implanted subcutaneously into female NSG mice. When the tumors grew to ~1000 mm^3, they were harvested and cryopreserved or immediately re-implanted for expansion or experiments. Mouse body weight and tumor sizes were measured every 3 days. Once the tumors grew to 150–200 mm^3, mice were treated with the compounds as described in the Figures. 1 × 10^6 A2780 cells (1 ml) were injected into the abdominal cavity of nude mice. Ascitic volume and tumor weight were measured by an electronic balance. All the procedures were evaluated and approved by the Institutional Animal Care and Use Committee of Central South University and Yale University.

For Cc1nnn(C)c1-c1cnc2c3c4cnn(C)c4ccc3n([C@H](c3ccccc3)C3CCOCC3)c2c1 [NHWD-870], which “fold more potent than GSK-525762 or OTX015” value ([1]; A375 cells) is on record?
The value was “about 14 fold”.

And the “fold more potent than I-BET151” value ([1]; A375 cells)?
The value was “about 23 fold”.

And the “Cellular activity in melanoma cells (A375), alamarBlue” value (shortened to “Cellular activity in melanoma cells”) ([1]; concentration(nM) 0.21442)?
Its value is 0.8628 and 1.0579.

And the “Cellular activity in melanoma cells” value ([1]; concentration(nM) 0.31236)?
The value was 16.3424 and 12.5613.

And the “Cellular activity in melanoma cells” value ([1]; concentration(nM) 0.4103)?
The value was 30.3045 and 25.7042.

And the “Cellular activity in melanoma cells” value ([1]; concentration(nM) 0.6032)?
The value was 65.3038 and 63.4524.

What about the “Cellular activity in melanoma cells” value ([1]; concentration(nM) 1.2043) of the same compound?
The value was 75.3216 and 83.4358.

What about the “Cellular activity in melanoma cells” value ([1]; concentration(nM) 1.8024) of the same compound?
The value was 92.8346 and 91.942.

And the “Cellular activity in melanoma cells” value ([1]; concentration(nM) 2.4)?
The value was 100.774 and 99.5602.

And the “Cellular activity in melanoma cells” value ([1]; concentration(nM) 3)?
Its value is 101.341 and 101.79.

What about the IC50 ([1]; Homo sapiens, A-375, nM printed in b8, the picture prints no unit, read-out: IC50, cellular activity in A375 (alamarBlue)) of the same compound?
Its IC50 is 2.46 nM.

What about the “effect on phosphorylated BRD4 and c-MYC (western blot)” value ([2]; 10 nM) of the same compound?
Its value is “depletion of phosphorylated BRD4 and c-MYC”.

And the “effect on the stability of BRD4 (western blot)” value [2]?
The value was “minimal effects on the stability of BRD4”.

What about the “effect on tumor growth” value [3] of the same compound?
Its value is “very strong tumor inhibitive effects”.

Reference: paper PMC7156724, “Potent BRD4 inhibitor suppresses cancer cell-macrophage interaction” (Nature Communications, 2020)
